SMILES strings stand for the structures. Values joined by “and” are separate entries in the source; they are usually repeats but may differ in a detail not shown here. Equal values may be shown once. “Also recorded” adds a separate entry of the source. Read-outs that look alike come from different tables or passages of the source.

Series [1] has as its target T1, porcine tubulin (Sus scrofa, UniProt P02550+P02554). In words: Activity for inhibiting microtubule polymerization using porcine tubulins (1). Type of series: biochemical. On the set-up: purchased Cytoskeleton Inc. BK006P. The settings on record: compound 0.91 μM; absorbance at 340 nm, 37° C.; FIG. 1 and FIG. 2.
The subject of the next series is SU-DHL-1 cells. In words: Cellular toxicity test (1), CellTiter-Glo, SU-DHL-1. As to conditions: Homo sapiens, 96 h, cultured 4 days, cell viability. Type of series: cell-based. The procedure:
(§1) SU-DHL-1 cells (American Type Culture Collection, hereinafter, ATCC) and Karpas-299 cells (European Collection of Authenticated Cell Cultures, hereinafter, ECACC), which are human lymphoma cell lines, were cultured in RPMI 1640 (GIBCO) containing 10% fetal bovine serum (MP Biomedicals) (hereinafter, referred to as the “culture medium” in this test). SU-DHL-1 cells and Karpas-299 cells were prepared to be 2×10^6 cells/mL in the culture medium, and were added to a 96 well microplate for cell culturing in an amount of 50 μL for each well. Compounds of Examples or hemiasterlin 4 times diluted with the culture medium in 8 stages were added to the microplate in an amount of 50 μL for each well. To wells to which the test substance was not added, the culture medium was added in an amount of 50 μL for each well. These were cultured at 37 degree under 5% CO2 for 4 days. After culturing, the microplate was taken out from the incubator, and was left at rest at room temperature for 10 minutes. To each well, 50 μL of CellTiter-Glo Luminescent Cell Viability Assay (Promega) was added, and the resultant mixture was stirred. This mixture was incubated at a dark place for 20 minutes. Using a microplate luminometer, luminescence at each well was measured, thereby calculating the cell viability for each concentration of the test substance. From the cell viability, the IC50 value of the test substance was determined.
(§2) The IC50 value was calculated by the following formula: IC50(nM)=antilog(LOG10(a/b)×(e−d)/(c−d)+LOG10b) • a: concentration a of test substance • b: concentration b of test substance • c: cell viability upon adding test substance with concentration a • d: cell viability upon adding test substance with concentration b • e: intermediate value between maximum and minimum among cell viabilities upon • adding test substances with different concentrations (a and b are concentrations crossing the cell viability e, and a>b is indicated).
(§3) The cell viability at each concentration was calculated by the following formula: Cell Viability (%)=a′/b′×100 • a′: mean value of luminescence amount of wells to which test substance was added (n=6) • b′: mean value of luminescence amount of wells to which test substance was not added (n=6) • (n represents the number of evaluations performed per test substance concentration).

Series [2] can be described thus: Pharmacokinetic evaluation test using mice. It is filed as in vivo. As to conditions: for half-life: single intravenous administration. The protocol: A pharmacokinetic evaluation test was performed by single intravenous administration of Example 4 at a dose of 1.0 mg/kg to mice. A calibration curve was made from measurements of Example 4 with known concentration, and by interpolating measurements of each specimen to this, the amount of the compound contained in unit volume of each plasma was calculated using LC-MS. Pharmacokinetics of compound 14 and hemiasterlin were similarly evaluated.
(n.d. in the tables means less than the detection limit value (0.5 ng/mL).)

A further series in a line: in vitro. The settings on record: PAMPA, pH 7.4. The protocol:
By the parallel artificial membrane permeability assay (PAMPA), the membrane permeability of compounds of Examples was examined as follows: To the donor plate, System solution (pION inc.) and GIT Lipid-0 (pION inc.) were added in an amount of 200 μL and 4 μL for each well, respectively. To the acceptor plate, Acceptor Sink Buffer (pION inc.) was added in an amount of 200 μL. Both plates were superposed and incubated at 37° C. for 4 hours, and then, UVs in the solutions on the side of acceptor and on the side of donor were measured with an UV plate reader (190 to 500 nm). Compounds with poor UV absorption were measured by LC-MS. The permeability coefficient Pe (10^−6 cm/sec) of the drug was calculated by the following formula.

The next series concerns SK-BR-3 cells. In words: Cellular toxicity test (2), CellTiter-Glo, SK-BR-3. As to conditions: Homo sapiens, 72 h, cultured 3 days, cell viability. It is filed as cell-based. The procedure:
as §2, §3
SK-BR-3 cells (ATCC), which are a human breast cancer cell line, were cultured in McCoy's 5A (GIBCO) containing 10% fetal bovine serum (MP Biomedicals) (hereinafter, referred to as the “culture medium” in this test). SK-BR-3 cells were prepared to be 2×10^6 cells/mL in the culture medium, added to a 96 well microplate for cell culturing in an amount of 50 μL for each well, and cultured at 37 degree under 5% CO2 overnight, and then, compounds of Examples or hemiasterlin 4 times diluted with the culture medium in 8 stages were added to the microplate in an amount of 50 μL for each well. To wells to which the test substance was not added, the culture medium was added in an amount of 50 μL for each well. These were cultured at 37 degree under 5% CO2 for 3 days. After culturing, the microplate was taken out from the incubator, and was left at rest at room temperature for 10 minutes. 50 μL of CellTiter-Glo Luminescent Cell Viability Assay (Promega) was added, and the resultant mixture was stirred. This mixture was incubated at a dark place for 20 minutes. Using a microplate luminometer, luminescence at each well was measured, thereby calculating the cell viability for each concentration of the test substance. The IC50 value was calculated in accordance with the method described in Test Example 3.

Another series deals with Karpas-299 cells. In words: Cellular toxicity test (1), CellTiter-Glo, Karpas-299. It is filed as cell-based. The settings on record: Homo sapiens, 96 h, cultured 4 days, cell viability. The procedure: as §1, §2, §3
Series [3] deals with T1, porcine tubulin. In words: Activity for inhibiting microtubule polymerization using porcine tubulins (2), microtubule polymerization rate. As to conditions: 60 minutes after assay initiation; relative to wells without compound; lower = stronger inhibition.
[4] abbreviates: mouse, plasma, iv, 1 mg/kg, single intravenous 1.0 mg/kg, 0.5 hr, read-out: Blood concentration, mean value.
The mark [5] stands for this setting: mouse, plasma, iv, 1 mg/kg, single intravenous 1.0 mg/kg, 2 hr, read-out: Blood concentration, individual mice 1-3.
Setting [6] is: mouse, plasma, iv, 1 mg/kg, single intravenous 1.0 mg/kg, 2 hr, read-out: Blood concentration, mean value.
Where [7] appears, read: single intravenous 1.0 mg/kg, 0.5 hr, 1 mg/kg.
The mark [8] stands for this setting: single intravenous 1.0 mg/kg, 2 hr, 1 mg/kg.
[9] abbreviates: single intravenous 1.0 mg/kg, 6 hr.
Where [10] appears, read: single intravenous 1.0 mg/kg, 24 hr.

T1 sequence (P02554 whole entry): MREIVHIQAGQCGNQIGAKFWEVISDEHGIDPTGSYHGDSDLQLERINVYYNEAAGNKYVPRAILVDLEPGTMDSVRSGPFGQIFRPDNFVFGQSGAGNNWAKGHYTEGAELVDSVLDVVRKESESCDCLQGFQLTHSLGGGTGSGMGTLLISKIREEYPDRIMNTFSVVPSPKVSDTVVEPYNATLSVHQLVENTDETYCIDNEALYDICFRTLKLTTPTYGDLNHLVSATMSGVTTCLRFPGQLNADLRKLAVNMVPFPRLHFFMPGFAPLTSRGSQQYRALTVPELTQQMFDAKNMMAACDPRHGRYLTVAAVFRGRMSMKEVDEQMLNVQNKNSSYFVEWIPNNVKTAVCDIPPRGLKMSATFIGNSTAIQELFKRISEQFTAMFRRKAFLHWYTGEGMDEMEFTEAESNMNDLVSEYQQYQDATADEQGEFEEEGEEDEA
T1 sequence (P02550 whole entry): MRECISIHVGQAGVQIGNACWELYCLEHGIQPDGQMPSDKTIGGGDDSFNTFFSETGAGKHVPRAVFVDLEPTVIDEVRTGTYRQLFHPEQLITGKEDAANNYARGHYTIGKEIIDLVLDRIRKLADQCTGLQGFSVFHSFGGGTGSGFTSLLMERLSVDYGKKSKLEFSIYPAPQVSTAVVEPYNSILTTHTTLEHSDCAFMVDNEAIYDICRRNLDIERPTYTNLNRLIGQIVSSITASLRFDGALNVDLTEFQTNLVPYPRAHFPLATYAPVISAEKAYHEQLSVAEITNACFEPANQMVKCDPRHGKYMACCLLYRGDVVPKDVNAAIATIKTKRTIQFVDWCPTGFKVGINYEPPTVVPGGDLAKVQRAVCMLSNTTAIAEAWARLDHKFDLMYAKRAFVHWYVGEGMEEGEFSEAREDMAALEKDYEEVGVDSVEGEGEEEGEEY

Regarding `CN[C@H](C(=O)N[C@H](C(=O)N(C)[C@H](/C=C(\C)C(=O)N[C@H](CCC(=O)O)C(=O)O)C(C)C)C(C)(C)C)C(C)(C)c1cn(C)c2ccccc12` [Example 4], at porcine tubulin [1], the “activity for inhibiting microtubule polymerization” value is recorded as “exhibited activities for inhibiting microtubule polymerization; also recorded: exhibited a stronger polymerization inhibitory activity”. Also, the 50% inhibitory concentration (IC50) was found to be 250 nM in the series with SU-DHL-1 cells, 193 nM in the series on SK-BR-3 cells and 291 nM in the series with Karpas-299 cells. Moreover, the half-life in series [2] (mouse, plasma, 1 mg/kg) was < 0.5 h. For the same compound, the concentration at 0.5 hr in series [2] (setting [4]) worked out at 13.7 ng/mL. Also, the concentration at 2 hr in series [2] (setting [5]) was 0.7 ng/mL; in series [2] (setting [6]) it was 0.8 ng/mL. Further, the “Blood concentration, individual mice 1-3” value in series [2] (setting [7]) is 10.3 ng/mL and 10.2 ng/mL and 20.6 ng/mL; in series [2] (setting [8]), 1.0 ng/mL and 0.7 ng/mL; in series [2] (setting [9]) it was “n.d. (less than the detection limit value (0.5 ng/mL))”; in series [2] (setting [10]), “n.d. (less than the detection limit value (0.5 ng/mL))”. In addition, the “Blood concentration, mean value” in series [2] (setting [9]) and in series [2] (setting [10]) was “n.d. (less than the detection limit value (0.5 ng/mL))” throughout. In addition, the “Blood concentration of Example 4 detected as metabolite of Example 14” value in series [2] (single intravenous administration of Example 14, 6 hr, animal 1) was “n.d. (less than the detection limit value (0.5 ng/mL))”; in series [2] (single intravenous administration of Example 14, 6 hr, animal 2), “n.d. (less than the detection limit value (0.5 ng/mL))”; in series [2] (single intravenous administration of Example 14, 6 hr, animal 3), “n.d. (less than the detection limit value (0.5 ng/mL))”; in series [2] (single intravenous administration of Example 14, 24 hr, animal 1), “n.d. (less than the detection limit value (0.5 ng/mL))”; in series [2] (single intravenous administration of Example 14, 24 hr, animal 2), “n.d. (less than the detection limit value (0.5 ng/mL))”; in series [2] (single intravenous administration of Example 14, 24 hr, animal 3), “n.d. (less than the detection limit value (0.5 ng/mL))”. Further, the “Blood concentration of Example 4 detected as metabolite of Example 14, mean” value in series [2] (single intravenous administration of Example 14, 6 hr) is reported as “n.d. (less than the detection limit value (0.5 ng/mL))”; in series [2] (single intravenous administration of Example 14, 24 hr), “n.d. (less than the detection limit value (0.5 ng/mL))”. Moreover, in “in vitro”, the Papp is < 0.1 ×10⁻⁶ cm/s.

Regarding `CCOC(=O)CC[C@@H](NC(=O)/C(C)=C/[C@H](C(C)C)N(C)C(=O)[C@@H](NC(=O)[C@@H](NC)C(C)(C)c1cn(C)c2ccccc12)C(C)(C)C)C(=O)OCC` [Example 9], the “activity for inhibiting microtubule polymerization” value at porcine tubulin [1] was “exhibited activities for inhibiting microtubule polymerization”.

`CN[C@H](C(=O)N[C@H](C(=O)N(C)[C@H](/C=C(\C)C(=O)N[C@@H](CC(=O)O)C(=O)O)C(C)C)C(C)(C)C)C(C)(C)c1cn(C)c2ccccc12` [Example 11]: the IC50 in the series with SU-DHL-1 cells was 158 nM; with SK-BR-3 cells, 157 nM; in the series on Karpas-299 cells, 220 nM. Also, the “Microtubule polymerization rate (%)” value on porcine tubulin [3] is given as 5%.

Regarding `CN[C@H](C(=O)N[C@H](C(=O)N(C)[C@H](/C=C(\C)C(=O)N[C@@H](CS)C(=O)OC)C(C)C)C(C)(C)C)C(C)(C)c1cn(C)c2ccccc12` [Example 22], the IC50 in the series with SU-DHL-1 cells turned out to be 1.22 nM; in the series with SK-BR-3 cells it was 1.92 nM.

Take `CN[C@H](C(=O)N[C@H](C(=O)N(C)[C@H](/C=C(\C)C(=O)N[C@@H](CS)C(=O)O)C(C)C)C(C)(C)C)C(C)(C)c1cn(C)c2ccccc12` [Example 23]: the “activity for inhibiting microtubule polymerization” value at porcine tubulin [1] is on record as “exhibited activities for inhibiting microtubule polymerization”. For the same compound, the figures for the IC50 in the series with SU-DHL-1 cells and in the series with SK-BR-3 cells were > 50 nM and 143 nM, respectively.

For `CN[C@H](C(=O)N[C@H](C(=O)N(C)[C@H](/C=C(\C)C(=O)N[C@H](CCC(=O)O)C(=O)O)C(C)C)C(C)(C)C)C(C)(C)c1cccc(Br)c1` [Example 69], the Papp in “in vitro” was < 0.1 ×10⁻⁶ cm/s. Further, at porcine tubulin [3], the “Microtubule polymerization rate (%)” value stood at 5%. This compound had an IC50 in the series on Karpas-299 cells of 97.1 nM.

As to `CN[C@H](C(=O)N[C@H](C(=O)N(C)[C@H](/C=C(\C)C(=O)N[C@H](CCC(=O)O)C(=O)O)C(C)C)C(C)(C)C)C(C)(C)c1ccc(C(=O)O)cc1` [Example 71], in the series “in vitro”, the Papp was < 0.1 ×10⁻⁶ cm/s. On porcine tubulin [3], the “Microtubule polymerization rate (%)” value amounted to 4%. The midpoint of inhibition with Karpas-299 cells, the IC50, lay at 701 nM.

In the case of `CN[C@H](C(=O)N[C@H](C(=O)N(C)[C@H](/C=C(\C)C(=O)N[C@@H](CCC(=O)OC)C(=O)OC)C(C)C)C(C)(C)C)C(C)(C)c1cn(C)c2ccccc12` [Example 72], the Papp in “in vitro” is < 0.1 ×10⁻⁶ cm/s. Further, the “Microtubule polymerization rate (%)” value at porcine tubulin [3] worked out at 1%. In addition, the IC50 in the series on Karpas-299 cells worked out at 106 nM.

In the case of `CN[C@H](C(=O)N[C@H](C(=O)N(C)[C@H](/C=C(\C)C(=O)O)C(C)C)C(C)(C)C)C(C)(C)c1cn(C)c2ccccc12` [Hemiasterlin, hemiasterlin], the half-life in series [2] (mouse, plasma, 1 mg/kg) was < 13.1 h. In series [2] (setting [4]), the concentration at 0.5 hr amounted to 65 ng/mL. Also, the values for the concentration at 2 hr in series [2] (setting [5]) and in series [2] (setting [6]) were 25.1 ng/mL and 25.8 ng/mL, respectively. Besides, the concentration at 6 hr in series [2] (mouse, plasma, iv, 1 mg/kg, single intravenous 1.0 mg/kg, 6 hr, read-out: Blood concentration, individual mice 1-3) is 18.9 ng/mL; in series [2] (mouse, plasma, iv, 1 mg/kg, single intravenous 1.0 mg/kg, 6 hr, read-out: Blood concentration, mean value) it was 22.4 ng/mL. The concentration at 24 hr in series [2] (mouse, plasma, iv, 1 mg/kg, single intravenous 1.0 mg/kg, 24 hr, read-out: Blood concentration, mean value) is 8.3 ng/mL. The “Blood concentration, individual mice 1-3” value in series [2] (setting [7]) is 54.5 ng/mL and 99.8 ng/mL and 40.6 ng/mL; in series [2] (setting [8]), 22.2 ng/mL and 30.20 ng/mL; in series [2] (single intravenous 1.0 mg/kg, 6 hr, 1 mg/kg) it was 18.2 ng/mL and 30.2 ng/mL; in series [2] (single intravenous 1.0 mg/kg, 24 hr, 1 mg/kg), 2.4 ng/mL and 12.8 ng/mL and 9.5 ng/mL. For the same compound, the “Microtubule polymerization rate (%)” value on porcine tubulin [3] is 3%. For the same compound, the IC50 in the series with SK-BR-3 cells is 0.088 nM; in the series with Karpas-299 cells, 0.032 nM.

The values above are taken from patent publication US12018093B2, “Hemiasterlin derivatives and antibody-drug conjugates including same” (priority 2017, dated 2024).
